Data published in ChEMBL document CHEMBL4765237, “Structural optimization and structure-activity relationship studies of N-phenyl-7,8-dihydro-6H-pyrimido[5,4-b][1,4]oxazin-4-amine derivatives as a new class of inhibitors of RET and its drug resistance mutants” (Eur J Med Chem, 2018).
pIC50: −log10 of the molar value.

test system: BaF3; format: functional; conditions: Mus musculus, BaF3, 72 h; time 3 day

SMILES | GI50 [µM]
O=C(Nc1ccc(Nc2ncnc3c2OCCN3)cc1)Nc1cc(Cl)cc(Cl)c1 | > 10
O=C(Nc1ccc(Cl)cc1)Nc1ccc(Nc2ncnc3c2OCCN3)cc1 | > 10
COc1cccc(NC(=O)Nc2ccc(Nc3ncnc4c3OCCN4)cc2)c1 | > 10
Cc1cc(C)cc(NC(=O)Nc2ccc(Nc3ncnc4c3OCCN4)cc2)c1 | > 10
COc1ccc(NC(=O)Nc2ccc(Nc3ncnc4c3OCCN4)cc2)cc1 | > 10
Cc1cc(NC(=O)Nc2cc(C(C)(C)C)on2)ccc1Nc1ncnc2c1OCCN2 | 5.72
CC(C)(C)c1cc(NC(=O)Nc2ccc(Nc3ncnc4c3OCCN4)nc2)no1 | > 10
CC(C)(C)c1cc(NC(=O)Nc2ccc(Nc3ncnc4c3OCCN4)c(F)c2)no1 | 3.49
CC(C)(C)c1cc(NC(=O)Nc2ccc(Nc3ncnc4c3OCCN4)cc2)no1 | 4.41
CC(C)(C)c1cc(NC(=O)Nc2cccc(Nc3ncnc4c3OCCN4)c2)no1 | > 10
O=C(Nc1ccc(Nc2ncnc3c2OCCN3)cc1)Nc1cccs1 | > 10

test system: BaF3; assay: Growth inhibition of mouse BaF3 cells harboring RET M918T mutant incubated for 3 days by MTT assay; format: functional; conditions: BaF3, 72 h, time 3 day

SMILES | GI50 [µM]
O=C(Nc1ccc(Nc2ncnc3c2OCCN3)cc1)Nc1cc(Cl)cc(Cl)c1 | > 10
O=C(Nc1ccc(Cl)cc1)Nc1ccc(Nc2ncnc3c2OCCN3)cc1 | > 10
COc1cccc(NC(=O)Nc2ccc(Nc3ncnc4c3OCCN4)cc2)c1 | > 10
Cc1cc(C)cc(NC(=O)Nc2ccc(Nc3ncnc4c3OCCN4)cc2)c1 | > 10
COc1ccc(NC(=O)Nc2ccc(Nc3ncnc4c3OCCN4)cc2)cc1 | > 10
Cc1cc(NC(=O)Nc2cc(C(C)(C)C)on2)ccc1Nc1ncnc2c1OCCN2 | 4.76
CC(C)(C)c1cc(NC(=O)Nc2ccc(Nc3ncnc4c3OCCN4)nc2)no1 | > 10
CC(C)(C)c1cc(NC(=O)Nc2ccc(Nc3ncnc4c3OCCN4)c(F)c2)no1 | 2.94
CC(C)(C)c1cc(NC(=O)Nc2ccc(Nc3ncnc4c3OCCN4)cc2)no1 | 1.62
CC(C)(C)c1cc(NC(=O)Nc2cccc(Nc3ncnc4c3OCCN4)c2)no1 | > 10
O=C(Nc1ccc(Nc2ncnc3c2OCCN3)cc1)Nc1cccs1 | > 10

test system: BaF3; assay: Growth inhibition of mouse BaF3 cells incubated for 3 days by MTT assay; format: functional; conditions: BaF3, 72 h, time 3 day

SMILES | GI50 [µM]
O=C(Nc1ccc(Nc2ncnc3c2OCCN3)cc1)Nc1cc(Cl)cc(Cl)c1 | 10
O=C(Nc1ccc(Cl)cc1)Nc1ccc(Nc2ncnc3c2OCCN3)cc1 | > 10
COc1cccc(NC(=O)Nc2ccc(Nc3ncnc4c3OCCN4)cc2)c1 | > 10
Cc1cc(C)cc(NC(=O)Nc2ccc(Nc3ncnc4c3OCCN4)cc2)c1 | > 10
COc1ccc(NC(=O)Nc2ccc(Nc3ncnc4c3OCCN4)cc2)cc1 | > 10
Cc1cc(NC(=O)Nc2cc(C(C)(C)C)on2)ccc1Nc1ncnc2c1OCCN2 | > 10
CC(C)(C)c1cc(NC(=O)Nc2ccc(Nc3ncnc4c3OCCN4)nc2)no1 | > 10
CC(C)(C)c1cc(NC(=O)Nc2ccc(Nc3ncnc4c3OCCN4)c(F)c2)no1 | 10
CC(C)(C)c1cc(NC(=O)Nc2ccc(Nc3ncnc4c3OCCN4)cc2)no1 | > 10
CC(C)(C)c1cc(NC(=O)Nc2cccc(Nc3ncnc4c3OCCN4)c2)no1 | > 10
O=C(Nc1ccc(Nc2ncnc3c2OCCN3)cc1)Nc1cccs1 | > 10

test system: BaF3; assay: Growth inhibition of mouse BaF3 cells over expressing wild type RET incubated for 3 days by MTT assay; format: functional; conditions: BaF3, 72 h, time 3 day

SMILES | GI50 [µM]
O=C(Nc1ccc(Nc2ncnc3c2OCCN3)cc1)Nc1cc(Cl)cc(Cl)c1 | > 10
O=C(Nc1ccc(Cl)cc1)Nc1ccc(Nc2ncnc3c2OCCN3)cc1 | > 10
COc1cccc(NC(=O)Nc2ccc(Nc3ncnc4c3OCCN4)cc2)c1 | > 10
Cc1cc(C)cc(NC(=O)Nc2ccc(Nc3ncnc4c3OCCN4)cc2)c1 | > 10
COc1ccc(NC(=O)Nc2ccc(Nc3ncnc4c3OCCN4)cc2)cc1 | > 10
Cc1cc(NC(=O)Nc2cc(C(C)(C)C)on2)ccc1Nc1ncnc2c1OCCN2 | 0.73
CC(C)(C)c1cc(NC(=O)Nc2ccc(Nc3ncnc4c3OCCN4)nc2)no1 | 4.12
CC(C)(C)c1cc(NC(=O)Nc2ccc(Nc3ncnc4c3OCCN4)c(F)c2)no1 | 0.33
CC(C)(C)c1cc(NC(=O)Nc2ccc(Nc3ncnc4c3OCCN4)cc2)no1 | 0.15
CC(C)(C)c1cc(NC(=O)Nc2cccc(Nc3ncnc4c3OCCN4)c2)no1 | > 10
O=C(Nc1ccc(Nc2ncnc3c2OCCN3)cc1)Nc1cccs1 | > 10

test system: not listed separately; assay: Growth inhibition of human TT cells incubated for 10 days by MTT assay; format: functional; conditions: 240 h, time 10 day

SMILES | GI50 [µM]
O=C(Nc1ccc(Nc2ncnc3c2OCCN3)cc1)Nc1cc(Cl)cc(Cl)c1 | > 10
O=C(Nc1ccc(Cl)cc1)Nc1ccc(Nc2ncnc3c2OCCN3)cc1 | > 10
COc1cccc(NC(=O)Nc2ccc(Nc3ncnc4c3OCCN4)cc2)c1 | > 10
Cc1cc(C)cc(NC(=O)Nc2ccc(Nc3ncnc4c3OCCN4)cc2)c1 | 5.65
COc1ccc(NC(=O)Nc2ccc(Nc3ncnc4c3OCCN4)cc2)cc1 | 6.12
Cc1cc(NC(=O)Nc2cc(C(C)(C)C)on2)ccc1Nc1ncnc2c1OCCN2 | 0.45
CC(C)(C)c1cc(NC(=O)Nc2ccc(Nc3ncnc4c3OCCN4)nc2)no1 | 2.56
CC(C)(C)c1cc(NC(=O)Nc2ccc(Nc3ncnc4c3OCCN4)c(F)c2)no1 | 0.3
CC(C)(C)c1cc(NC(=O)Nc2ccc(Nc3ncnc4c3OCCN4)cc2)no1 | 0.08
CC(C)(C)c1cc(NC(=O)Nc2cccc(Nc3ncnc4c3OCCN4)c2)no1 | > 10
O=C(Nc1ccc(Nc2ncnc3c2OCCN3)cc1)Nc1cccs1 | > 10

test system: not listed separately; assay: Growth inhibition of […] NIH3T3 cells incubated for 3 days by MTT assay; format: functional; conditions: NIH3T3, 72 h; time 3 day

SMILES | GI50 [µM]
O=C(Nc1ccc(Nc2ncnc3c2OCCN3)cc1)Nc1cc(Cl)cc(Cl)c1 | > 10
O=C(Nc1ccc(Cl)cc1)Nc1ccc(Nc2ncnc3c2OCCN3)cc1 | > 10
COc1cccc(NC(=O)Nc2ccc(Nc3ncnc4c3OCCN4)cc2)c1 | > 10
Cc1cc(C)cc(NC(=O)Nc2ccc(Nc3ncnc4c3OCCN4)cc2)c1 | > 10
COc1ccc(NC(=O)Nc2ccc(Nc3ncnc4c3OCCN4)cc2)cc1 | > 10
Cc1cc(NC(=O)Nc2cc(C(C)(C)C)on2)ccc1Nc1ncnc2c1OCCN2 | > 10
CC(C)(C)c1cc(NC(=O)Nc2ccc(Nc3ncnc4c3OCCN4)nc2)no1 | > 10
CC(C)(C)c1cc(NC(=O)Nc2ccc(Nc3ncnc4c3OCCN4)c(F)c2)no1 | > 10
CC(C)(C)c1cc(NC(=O)Nc2ccc(Nc3ncnc4c3OCCN4)cc2)no1 | > 10
CC(C)(C)c1cc(NC(=O)Nc2cccc(Nc3ncnc4c3OCCN4)c2)no1 | > 10
O=C(Nc1ccc(Nc2ncnc3c2OCCN3)cc1)Nc1cccs1 | > 10

test system: not listed separately; assay: Growth inhibition of […] NIH3T3 cells harboring RET C634Y mutant incubated for 3 days by MTT assay; format: functional; conditions: NIH3T3, 72 h; time 3 day

SMILES | GI50 [µM]
O=C(Nc1ccc(Nc2ncnc3c2OCCN3)cc1)Nc1cc(Cl)cc(Cl)c1 | 8.05
O=C(Nc1ccc(Cl)cc1)Nc1ccc(Nc2ncnc3c2OCCN3)cc1 | > 10
COc1cccc(NC(=O)Nc2ccc(Nc3ncnc4c3OCCN4)cc2)c1 | > 10
Cc1cc(C)cc(NC(=O)Nc2ccc(Nc3ncnc4c3OCCN4)cc2)c1 | 7.08
COc1ccc(NC(=O)Nc2ccc(Nc3ncnc4c3OCCN4)cc2)cc1 | > 10
Cc1cc(NC(=O)Nc2cc(C(C)(C)C)on2)ccc1Nc1ncnc2c1OCCN2 | 1.54
CC(C)(C)c1cc(NC(=O)Nc2ccc(Nc3ncnc4c3OCCN4)nc2)no1 | 10
CC(C)(C)c1cc(NC(=O)Nc2ccc(Nc3ncnc4c3OCCN4)c(F)c2)no1 | 0.39
CC(C)(C)c1cc(NC(=O)Nc2ccc(Nc3ncnc4c3OCCN4)cc2)no1 | 0.11
CC(C)(C)c1cc(NC(=O)Nc2cccc(Nc3ncnc4c3OCCN4)c2)no1 | > 10
O=C(Nc1ccc(Nc2ncnc3c2OCCN3)cc1)Nc1cccs1 | > 10

biological target: Proto-oncogene tyrosine-protein kinase receptor Ret (Homo sapiens, UniProt P07949); conditions: not given
Sequence (P07949 whole entry): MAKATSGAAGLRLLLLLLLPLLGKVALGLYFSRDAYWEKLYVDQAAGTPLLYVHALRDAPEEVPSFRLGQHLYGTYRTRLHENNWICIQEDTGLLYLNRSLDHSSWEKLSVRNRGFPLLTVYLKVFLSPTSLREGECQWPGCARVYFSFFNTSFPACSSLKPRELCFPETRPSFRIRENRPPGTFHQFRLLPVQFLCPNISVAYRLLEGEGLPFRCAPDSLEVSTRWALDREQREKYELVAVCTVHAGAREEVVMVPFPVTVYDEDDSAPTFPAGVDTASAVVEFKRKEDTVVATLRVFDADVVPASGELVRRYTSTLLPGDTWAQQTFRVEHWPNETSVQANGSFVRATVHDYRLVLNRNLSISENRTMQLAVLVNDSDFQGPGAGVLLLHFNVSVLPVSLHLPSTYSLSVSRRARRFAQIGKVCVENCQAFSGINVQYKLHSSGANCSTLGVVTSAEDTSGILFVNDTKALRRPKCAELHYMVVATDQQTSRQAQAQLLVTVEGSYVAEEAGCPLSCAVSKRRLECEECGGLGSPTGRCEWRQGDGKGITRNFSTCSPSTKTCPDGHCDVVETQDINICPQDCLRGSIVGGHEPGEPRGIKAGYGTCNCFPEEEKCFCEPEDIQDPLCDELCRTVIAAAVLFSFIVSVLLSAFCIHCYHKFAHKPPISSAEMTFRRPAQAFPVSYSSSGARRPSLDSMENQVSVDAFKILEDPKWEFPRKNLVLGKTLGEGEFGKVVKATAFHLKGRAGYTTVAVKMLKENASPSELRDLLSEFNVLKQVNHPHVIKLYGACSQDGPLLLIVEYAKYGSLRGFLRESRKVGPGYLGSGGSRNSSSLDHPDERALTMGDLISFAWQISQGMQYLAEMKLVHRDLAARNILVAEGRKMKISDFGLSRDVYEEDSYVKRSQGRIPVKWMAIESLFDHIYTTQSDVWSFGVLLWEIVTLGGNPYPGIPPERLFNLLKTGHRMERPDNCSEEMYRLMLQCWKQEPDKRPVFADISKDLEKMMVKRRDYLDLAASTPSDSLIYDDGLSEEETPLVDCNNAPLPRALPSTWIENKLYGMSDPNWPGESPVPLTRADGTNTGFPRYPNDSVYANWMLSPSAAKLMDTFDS

SMILES | pIC50
O=C(Nc1ccc(Nc2ncnc3c2OCCN3)cc1)Nc1cc(Cl)cc(Cl)c1 | 6.06
O=C(Nc1ccc(Cl)cc1)Nc1ccc(Nc2ncnc3c2OCCN3)cc1 | 5.51
COc1cccc(NC(=O)Nc2ccc(Nc3ncnc4c3OCCN4)cc2)c1 | 5.17
Cc1cc(C)cc(NC(=O)Nc2ccc(Nc3ncnc4c3OCCN4)cc2)c1 | 5.97
COc1ccc(NC(=O)Nc2ccc(Nc3ncnc4c3OCCN4)cc2)cc1 | 6.64
Cc1cc(NC(=O)Nc2cc(C(C)(C)C)on2)ccc1Nc1ncnc2c1OCCN2 | 7.30
CC(C)(C)c1cc(NC(=O)Nc2ccc(Nc3ncnc4c3OCCN4)nc2)no1 | 7.11
CC(C)(C)c1cc(NC(=O)Nc2ccc(Nc3ncnc4c3OCCN4)c(F)c2)no1 | 7.68
CC(C)(C)c1cc(NC(=O)Nc2ccc(Nc3ncnc4c3OCCN4)cc2)no1 | 8.00
CC(C)(C)c1cc(NC(=O)Nc2cccc(Nc3ncnc4c3OCCN4)c2)no1 | 6.03
O=C(Nc1ccc(Nc2ncnc3c2OCCN3)cc1)Nc1cccs1 | < 5.00

test system: BaF3; assay: Growth inhibition of mouse BaF3 cells harboring RET V804M mutant incubated for 3 days by MTT assay; format: functional; conditions: BaF3, 72 h, time 3 day

SMILES | GI50 [µM]
O=C(Nc1ccc(Nc2ncnc3c2OCCN3)cc1)Nc1cc(Cl)cc(Cl)c1 | > 10
O=C(Nc1ccc(Cl)cc1)Nc1ccc(Nc2ncnc3c2OCCN3)cc1 | > 10
COc1cccc(NC(=O)Nc2ccc(Nc3ncnc4c3OCCN4)cc2)c1 | > 10
Cc1cc(C)cc(NC(=O)Nc2ccc(Nc3ncnc4c3OCCN4)cc2)c1 | > 10
COc1ccc(NC(=O)Nc2ccc(Nc3ncnc4c3OCCN4)cc2)cc1 | > 10
Cc1cc(NC(=O)Nc2cc(C(C)(C)C)on2)ccc1Nc1ncnc2c1OCCN2 | 2.03
CC(C)(C)c1cc(NC(=O)Nc2ccc(Nc3ncnc4c3OCCN4)nc2)no1 | > 10
CC(C)(C)c1cc(NC(=O)Nc2ccc(Nc3ncnc4c3OCCN4)c(F)c2)no1 | 1.53
CC(C)(C)c1cc(NC(=O)Nc2ccc(Nc3ncnc4c3OCCN4)cc2)no1 | 1.36
CC(C)(C)c1cc(NC(=O)Nc2cccc(Nc3ncnc4c3OCCN4)c2)no1 | > 10
O=C(Nc1ccc(Nc2ncnc3c2OCCN3)cc1)Nc1cccs1 | > 10

biological target: Proto-oncogene tyrosine-protein kinase receptor Ret (Homo sapiens, UniProt P07949, V804M); conditions: not given
Sequence (P07949 29-1114 V804M limits assumed): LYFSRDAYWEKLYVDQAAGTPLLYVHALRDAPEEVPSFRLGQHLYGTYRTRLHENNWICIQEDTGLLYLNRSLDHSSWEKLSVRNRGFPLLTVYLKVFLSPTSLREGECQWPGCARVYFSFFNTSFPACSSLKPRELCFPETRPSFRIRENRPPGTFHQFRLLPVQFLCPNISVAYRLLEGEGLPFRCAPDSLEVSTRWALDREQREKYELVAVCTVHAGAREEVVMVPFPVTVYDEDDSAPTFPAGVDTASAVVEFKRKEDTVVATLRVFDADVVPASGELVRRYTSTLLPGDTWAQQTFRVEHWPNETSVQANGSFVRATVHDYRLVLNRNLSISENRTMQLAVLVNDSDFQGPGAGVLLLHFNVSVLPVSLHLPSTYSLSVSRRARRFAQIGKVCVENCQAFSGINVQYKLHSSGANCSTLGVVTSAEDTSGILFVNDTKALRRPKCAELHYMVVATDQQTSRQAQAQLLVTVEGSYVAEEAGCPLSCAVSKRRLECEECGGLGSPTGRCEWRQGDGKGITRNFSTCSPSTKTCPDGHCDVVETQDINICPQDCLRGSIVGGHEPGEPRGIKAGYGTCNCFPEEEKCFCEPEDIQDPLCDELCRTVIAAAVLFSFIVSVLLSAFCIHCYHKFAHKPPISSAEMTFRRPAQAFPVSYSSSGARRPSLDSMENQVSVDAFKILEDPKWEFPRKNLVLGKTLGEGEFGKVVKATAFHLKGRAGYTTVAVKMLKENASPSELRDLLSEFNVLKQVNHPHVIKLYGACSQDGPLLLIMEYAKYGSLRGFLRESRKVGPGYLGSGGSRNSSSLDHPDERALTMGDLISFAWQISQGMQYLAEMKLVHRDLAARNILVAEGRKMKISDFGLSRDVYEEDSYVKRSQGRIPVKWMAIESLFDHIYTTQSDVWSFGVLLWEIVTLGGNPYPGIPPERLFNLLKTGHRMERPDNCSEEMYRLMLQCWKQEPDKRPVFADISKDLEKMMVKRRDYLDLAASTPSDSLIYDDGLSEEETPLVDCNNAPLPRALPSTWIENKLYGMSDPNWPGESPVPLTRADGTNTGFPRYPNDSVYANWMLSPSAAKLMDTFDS

SMILES | pIC50
O=C(Nc1ccc(Nc2ncnc3c2OCCN3)cc1)Nc1cc(Cl)cc(Cl)c1 | 5.89
O=C(Nc1ccc(Cl)cc1)Nc1ccc(Nc2ncnc3c2OCCN3)cc1 | 5.64
COc1cccc(NC(=O)Nc2ccc(Nc3ncnc4c3OCCN4)cc2)c1 | 5.28
Cc1cc(C)cc(NC(=O)Nc2ccc(Nc3ncnc4c3OCCN4)cc2)c1 | 6.01
COc1ccc(NC(=O)Nc2ccc(Nc3ncnc4c3OCCN4)cc2)cc1 | 6.08
Cc1cc(NC(=O)Nc2cc(C(C)(C)C)on2)ccc1Nc1ncnc2c1OCCN2 | 7.36
CC(C)(C)c1cc(NC(=O)Nc2ccc(Nc3ncnc4c3OCCN4)nc2)no1 | 6.74
CC(C)(C)c1cc(NC(=O)Nc2ccc(Nc3ncnc4c3OCCN4)c(F)c2)no1 | 7.66
CC(C)(C)c1cc(NC(=O)Nc2ccc(Nc3ncnc4c3OCCN4)cc2)no1 | 7.47
CC(C)(C)c1cc(NC(=O)Nc2cccc(Nc3ncnc4c3OCCN4)c2)no1 | 5.46
O=C(Nc1ccc(Nc2ncnc3c2OCCN3)cc1)Nc1cccs1 | 5.06
